Reference: the NIST ThermoML archive (doi:10.1021/je034142v)
“And” between values parts separate entries of the source, which are not always exact repeats. Equal values may be shown once.

Details: Liquid; for mass density: vibrating tube

C1CCCC1 [cyclopentane]
Details | mass density [kg/m3] | viscosity
257.86 K, 100 kPa | – | 0.6878 mPa·s
257.87 K, 100 kPa | – | 0.6871 mPa·s
258.01 K, 100 kPa | – | 0.6851 mPa·s
262.93 K, 100 kPa | – | 0.6393 mPa·s and 0.6392 mPa·s
262.93 K, 3100 kPa | – | 0.6574 mPa·s
262.93 K, 5600 kPa | – | 0.6719 mPa·s
262.93 K, 7900 kPa | – | 0.6858 mPa·s
262.93 K, 10100 kPa | – | 0.6987 mPa·s
262.93 K, 25800 kPa | – | 0.795 mPa·s
262.93 K, 50800 kPa | – | 0.9583 mPa·s
262.93 K, 75700 kPa | – | 1.137 mPa·s
262.93 K, 100700 kPa | – | 1.333 mPa·s
262.93 K, 125800 kPa | – | 1.546 mPa·s
262.93 K, 150800 kPa | – | 1.782 mPa·s
262.93 K, 175800 kPa | – | 2.04 mPa·s
262.93 K, 200800 kPa | – | 2.322 mPa·s
262.93 K, 225900 kPa | – | 2.629 mPa·s
262.93 K, 250900 kPa | – | 2.967 mPa·s
262.93 K, 275800 kPa | – | 3.333 mPa·s
262.93 K, 300600 kPa | – | 3.725 mPa·s
262.99 K, 100 kPa | – | 0.6384 mPa·s and 0.6388 mPa·s
262.99 K, 3100 kPa | – | 0.6562 mPa·s
262.99 K, 5600 kPa | – | 0.6709 mPa·s
262.99 K, 8100 kPa | – | 0.6858 mPa·s
262.99 K, 10800 kPa | – | 0.7025 mPa·s
262.99 K, 25800 kPa | – | 0.7943 mPa·s
262.99 K, 50800 kPa | – | 0.9576 mPa·s
262.99 K, 75700 kPa | – | 1.136 mPa·s
262.99 K, 100500 kPa | – | 1.33 mPa·s
262.99 K, 125500 kPa | – | 1.543 mPa·s
262.99 K, 150500 kPa | – | 1.778 mPa·s
262.99 K, 175500 kPa | – | 2.032 mPa·s
262.99 K, 200200 kPa | – | 2.307 mPa·s
263.03 K, 100 kPa | – | 0.6386 mPa·s and 0.639 mPa·s
263.03 K, 10600 kPa | – | 0.7005 mPa·s
263.03 K, 20600 kPa | – | 0.7608 mPa·s
263.03 K, 30600 kPa | – | 0.8231 mPa·s
263.03 K, 40500 kPa | – | 0.8873 mPa·s
263.03 K, 50500 kPa | – | 0.9555 mPa·s
263.03 K, 60500 kPa | – | 1.024 mPa·s
263.03 K, 70500 kPa | – | 1.095 mPa·s
263.03 K, 80600 kPa | – | 1.171 mPa·s
263.03 K, 90400 kPa | – | 1.246 mPa·s
263.03 K, 100400 kPa | – | 1.327 mPa·s
263.03 K, 110500 kPa | – | 1.41 mPa·s
263.03 K, 120500 kPa | – | 1.496 mPa·s
263.03 K, 130500 kPa | – | 1.585 mPa·s
263.03 K, 140400 kPa | – | 1.677 mPa·s
263.03 K, 150400 kPa | – | 1.774 mPa·s
263.03 K, 160500 kPa | – | 1.874 mPa·s
263.03 K, 170500 kPa | – | 1.977 mPa·s
263.03 K, 180400 kPa | – | 2.083 mPa·s
263.03 K, 190300 kPa | – | 2.193 mPa·s
263.03 K, 200200 kPa | – | 2.27 mPa·s
268.01 K, 100 kPa | – | 0.6016 mPa·s and 0.5994 mPa·s
268.01 K, 3000 kPa | – | 0.6145 mPa·s
268.01 K, 5500 kPa | – | 0.6285 mPa·s
268.01 K, 8100 kPa | – | 0.6428 mPa·s
268.01 K, 10600 kPa | – | 0.6569 mPa·s
268.01 K, 25900 kPa | – | 0.745 mPa·s
268.01 K, 50900 kPa | – | 0.8969 mPa·s
268.01 K, 75900 kPa | – | 1.065 mPa·s
268.01 K, 100700 kPa | – | 1.243 mPa·s
268.01 K, 125700 kPa | – | 1.44 mPa·s
268.01 K, 150600 kPa | – | 1.657 mPa·s
268.01 K, 175700 kPa | – | 1.896 mPa·s
268.01 K, 200700 kPa | – | 2.151 mPa·s
268.01 K, 225600 kPa | – | 2.432 mPa·s
268.01 K, 250800 kPa | – | 2.742 mPa·s
268.01 K, 275300 kPa | – | 3.073 mPa·s
268.01 K, 301000 kPa | – | 3.447 mPa·s
268.01 K, 325300 kPa | – | 3.833 mPa·s
268.01 K, 351200 kPa | – | 4.283 mPa·s
268.01 K, 378000 kPa | – | 4.766 mPa·s
273.15 K, 100 kPa | – | 0.5601 mPa·s and 0.561 mPa·s
273.15 K, 3100 kPa | – | 0.5756 mPa·s
273.15 K, 5600 kPa | – | 0.5886 mPa·s
273.15 K, 8100 kPa | – | 0.6022 mPa·s
273.15 K, 10600 kPa | – | 0.6155 mPa·s
273.15 K, 25900 kPa | – | 0.6979 mPa·s
273.15 K, 50800 kPa | – | 0.8418 mPa·s
273.15 K, 75800 kPa | – | 0.9972 mPa·s
273.15 K, 100700 kPa | – | 1.166 mPa·s
273.15 K, 125500 kPa | – | 1.349 mPa·s
273.15 K, 150500 kPa | – | 1.55 mPa·s
273.15 K, 175500 kPa | – | 1.769 mPa·s
273.15 K, 200500 kPa | – | 2.006 mPa·s
273.15 K, 225300 kPa | – | 2.266 mPa·s
273.15 K, 250600 kPa | – | 2.552 mPa·s
273.15 K, 275800 kPa | – | 2.864 mPa·s
273.15 K, 300700 kPa | – | 3.198 mPa·s
273.15 K, 325900 kPa | – | 3.56 mPa·s
273.15 K, 350700 kPa | – | 3.947 mPa·s
273.15 K, 379200 kPa | – | 4.44 mPa·s
278.15 K, 101.33 kPa | 759.64 | –
278.16 K, 100 kPa | – | 0.5288 mPa·s and 0.529 mPa·s
278.16 K, 2900 kPa | – | 0.543 mPa·s
278.16 K, 5000 kPa | – | 0.5539 mPa·s
278.16 K, 8100 kPa | – | 0.5697 mPa·s
278.16 K, 10800 kPa | – | 0.5838 mPa·s
278.16 K, 25900 kPa | – | 0.6618 mPa·s
278.16 K, 50800 kPa | – | 0.7981 mPa·s
278.16 K, 75800 kPa | – | 0.9456 mPa·s
278.16 K, 100600 kPa | – | 1.105 mPa·s
278.16 K, 125700 kPa | – | 1.28 mPa·s
278.16 K, 150700 kPa | – | 1.469 mPa·s
278.16 K, 175800 kPa | – | 1.675 mPa·s
278.16 K, 200700 kPa | – | 1.895 mPa·s
278.16 K, 225800 kPa | – | 2.137 mPa·s
278.16 K, 250800 kPa | – | 2.395 mPa·s
278.16 K, 275900 kPa | – | 2.679 mPa·s
278.16 K, 300800 kPa | – | 2.992 mPa·s
278.16 K, 325900 kPa | – | 3.323 mPa·s
278.16 K, 350900 kPa | – | 3.683 mPa·s
278.16 K, 380100 kPa | – | 4.144 mPa·s
283.15 K, 101.33 kPa | 754.76 | –
287.93 K, 100 kPa | – | 0.471 mPa·s and 0.4712 mPa·s
287.93 K, 3000 kPa | – | 0.4845 mPa·s
287.93 K, 5400 kPa | – | 0.4955 mPa·s
287.93 K, 8100 kPa | – | 0.5084 mPa·s
287.93 K, 10800 kPa | – | 0.5216 mPa·s
287.93 K, 25900 kPa | – | 0.5923 mPa·s
287.93 K, 50900 kPa | – | 0.7153 mPa·s
287.93 K, 75800 kPa | – | 0.8468 mPa·s
287.93 K, 100800 kPa | – | 0.9885 mPa·s
287.93 K, 125700 kPa | – | 1.143 mPa·s
287.93 K, 150600 kPa | – | 1.308 mPa·s
287.93 K, 175700 kPa | – | 1.488 mPa·s
287.93 K, 200600 kPa | – | 1.681 mPa·s
287.93 K, 225700 kPa | – | 1.893 mPa·s
287.93 K, 250700 kPa | – | 2.121 mPa·s
287.93 K, 275700 kPa | – | 2.361 mPa·s
287.93 K, 300800 kPa | – | 2.623 mPa·s
287.93 K, 325500 kPa | – | 2.901 mPa·s
287.93 K, 349500 kPa | – | 3.196 mPa·s
287.93 K, 376900 kPa | – | 3.563 mPa·s
288.15 K, 101.33 kPa | 749.85 | –
293.15 K, 101.33 kPa | 744.9 | –
298 K, 100 kPa | – | 0.4191 mPa·s and 0.4196 mPa·s
298 K, 3000 kPa | – | 0.4308 mPa·s
298 K, 5300 kPa | – | 0.4404 mPa·s
298 K, 8100 kPa | – | 0.4526 mPa·s
298 K, 10900 kPa | – | 0.4644 mPa·s
298 K, 26000 kPa | – | 0.5288 mPa·s
298 K, 50800 kPa | – | 0.639 mPa·s
298 K, 75800 kPa | – | 0.7572 mPa·s
298 K, 100800 kPa | – | 0.8842 mPa·s
298 K, 125800 kPa | – | 1.021 mPa·s
298 K, 150700 kPa | – | 1.167 mPa·s
298 K, 175700 kPa | – | 1.324 mPa·s
298 K, 200700 kPa | – | 1.495 mPa·s
298 K, 225700 kPa | – | 1.678 mPa·s
298 K, 250700 kPa | – | 1.874 mPa·s
298 K, 275700 kPa | – | 2.085 mPa·s
298 K, 300600 kPa | – | 2.311 mPa·s
298 K, 324900 kPa | – | 2.542 mPa·s
298 K, 349600 kPa | – | 2.793 mPa·s
298 K, 375700 kPa | – | 3.084 mPa·s
298.03 K, 100 kPa | – | 0.419 mPa·s
298.03 K, 5500 kPa | – | 0.441 mPa·s
298.03 K, 7800 kPa | – | 0.4505 mPa·s
298.03 K, 10800 kPa | – | 0.4637 mPa·s
298.03 K, 25900 kPa | – | 0.5276 mPa·s
298.03 K, 50900 kPa | – | 0.6379 mPa·s
298.03 K, 75800 kPa | – | 0.7549 mPa·s
298.03 K, 100800 kPa | – | 0.8807 mPa·s
298.03 K, 125800 kPa | – | 1.016 mPa·s
298.03 K, 150700 kPa | – | 1.163 mPa·s
298.03 K, 175700 kPa | – | 1.322 mPa·s
298.03 K, 200700 kPa | – | 1.491 mPa·s
298.03 K, 225600 kPa | – | 1.673 mPa·s
298.03 K, 250600 kPa | – | 1.871 mPa·s
298.03 K, 275600 kPa | – | 2.081 mPa·s
298.03 K, 300400 kPa | – | 2.305 mPa·s
298.03 K, 325300 kPa | – | 2.545 mPa·s
298.03 K, 350100 kPa | – | 2.8 mPa·s
298.03 K, 378000 kPa | – | 3.112 mPa·s
298.15 K, 101.33 kPa | 739.92 | –

101.33 kPa, Capillary tube (Ostwald / Ubbelohde) method
Details | viscosity [mPa·s]
278.15 K | 0.523
283.15 K | 0.4932
288.15 K | 0.4657
293.15 K | 0.4405
298.15 K | 0.4173
